# Data taken from patent US12427196B2, “Macromolecular prodrugs for light-emitting diodes and uses thereof” (Children's Medical Center Corporation, priority 2020, dated 2025).
# Tests used:
# rat footpad = test: Phototriggered local anesthesia (nerve block) after rat footpad injection, Touch Test neurobehavioral testing; format: in vivo; details: irradiance 0 W/cm^2, irradiation duration 0 min (no irradiation)
# Description: The effectiveness of light-triggered anesthesia using P407-CM-T was assessed in vivo after footpad injection in the rat (Table 1);^17, 28-32 this model was selected because it was anticipated that 400 nm light would not penetrate deeply into tissue.^33
# A hundred microliters of 20 wt % P407-CM-T were injected into the plantar aspect of the rat hind paw. […] Irradiation of the site of administration immediately after injection with a 400 nm LED at 200 mW/cm^2 for two minutes caused local anesthesia lasting 19.5±4.5 min (FIGS. 5A-5B). Local anesthesia was prolonged to 36.5±8.9 min (FIG. 5B) by increasing the irradiance to 300 mW/cm^2 also for 2 minutes (p<0.05 compared to 200 mW/cm^2). Extending the irradiation time to five minutes at 300 mW/cm^2 further extended local anesthesia to 66.7±24 min (p<0.05 compared to 300 mW/cm^2 for 2 min, FIG. 5B).
# It would be important for a light-triggerable local anesthetic system to be triggered repeatedly, so as to be able to treat pain over an extended period. To assess the ability of P407-CM-T to provide repeated on-demand local anesthesia, animals were injected in the footpad with 0.1 mL of 20 wt % P407-CM-T (FIG. 4D). […] The animal was then irradiated at the site of injection with 400 nm light at 300 mW/cm^2 for 2 min. […]
# C2C12 cells = test: Cytotoxicity, MTS cell proliferation assay; format: cell-based; details: 24 h
# Description: (§1) Before testing the material in vivo, test materials were evaluated in vitro with C2C12 and PC12 cells to assess cytotoxicity to muscle and nerve cells respectively. Different compounds were directly added into the cell culture media (1 mg/mL, 0.33 mg/mL and 0.11 mg/mL) and incubated in the media bathing the cells (i.e. in direct contact with them) in conventional cell culture wells. After 24 h, cell viabilities were evaluated with the MTS assay, and their survival expressed as percentages of results in untreated cells. […] Due to the high molecular weight of the polymer-containing samples, their molar concentrations were perforce lower than that of the small molecule tetracaine. It would not be practical to culture cells in media containing the polymer concentration to be used in vivo (20 wt %), which would be very viscous. Therefore, test materials were placed in Transwell® inserts such that they were in continuity with the cell culture media.
# (§2) Cytotoxicity analysis. For the “direct contact” experiments, the cells were incubated in 48-well plates with concentration of formulations of 1, 0.33, 0.11 mg/mL in the media for all samples. For the “indirect contact” experiments, the cells were incubated in 24-well plates with a transwell in each well, in which 50 μL of tetracaine (0.5% wt %) or P407 (20% wt %) or P407-CM-T (20% wt %) was applied. After 24 h, the cell viabilities were evaluated with MTS assay as percentages of the control.
# PC12 cells = test: Cytotoxicity, MTS cell proliferation assay; format: cell-based; details: 24 h
# Description: as §1, §2
smiles,measurement,setting,value
"CCCCNc1ccc(C(=O)OCCN(C)C)cc1 [Tetracaine, tetracaine]",Duration of Block,rat footpad,28.6 ± 7.1 min
same,Cell viability (MTS),"C2C12 cells; C2C12, Transwell inserts, tetracaine 0.5% wt %, P407 20% wt %, P407-CM-T 20% wt %",greatly reduced cell survival
same,"Cytotoxicity (cell survival, MTS)","C2C12 cells; C2C12, direct contact, 1, 0.33 and 0.11 mg/mL in media",high cytotoxicity
same,Cell viability (MTS),"PC12 cells; PC12, Transwell inserts, tetracaine 0.5% wt %, P407 20% wt %, P407-CM-T 20% wt %",greatly reduced cell survival
same,"Cytotoxicity (cell survival, MTS)","PC12 cells; PC12, direct contact, 1, 0.33 and 0.11 mg/mL in media",high cytotoxicity
